The source made the active and inactive calls. The calls are words filed in the database; no cut-off is given here.
Experiments:
Escherichia coli [1] = assay: Antimicrobial activity against Escherichia coli ATCC 25922 assessed as reduction in bacterial growth incubated for 18 hrs in presence of 150 mM NaCl by CLSI protocol based broth microdilution method (reference value: 8 uM); assay type: functional
[2] = system: Staphylococcus epidermidis; assay: Antimicrobial activity against Staphylococcus epidermidis ATCC 12228 assessed as reduction of bacterial growth incubated for 18 hrs by CLSI protocol based broth microdilution method; assay type: functional
Erythrocyte = assay: Hemolytic activity in mouse red blood cells assessed as release of hemoglobin incubated for 1 hr by microplate reader method; assay type: toxicity, cell-based
Escherichia coli [3] = assay: Antimicrobial activity against Escherichia coli ATCC 25922 assessed as fold change in MIC incubated for 18 hrs in presence of 150 mM NaCl by CLSI protocol based broth microdilution method relative to control; assay type: functional
Escherichia coli [4] = assay: Antimicrobial activity against Escherichia coli ATCC 25922 assessed as fold change in MIC incubated for 18 hrs in presence of 4 uM FeCl3 by CLSI protocol based broth microdilution method relative to control; assay type: functional
Escherichia coli [5] = assay: Antimicrobial activity against Escherichia coli ATCC 25922 assessed as reduction in bacterial growth incubated for 18 hrs in presence of 4 uM FeCl3 by CLSI protocol based broth microdilution method (reference value: 8 uM); assay type: functional
Escherichia coli [6] = assay: Antimicrobial activity against Escherichia coli ATCC 25922 assessed as reduction in bacterial growth incubated for 18 hrs in presence of 10% serum by CLSI protocol based broth microdilution method (reference value: 8 uM); assay type: functional
Staphylococcus aureus [7] = assay: Antimicrobial activity against Staphylococcus aureus ATCC 25923 assessed as fold change in MIC incubated for 18 hrs in presence of 10% serum by CLSI protocol based broth microdilution method relative to control; assay type: functional
Staphylococcus aureus [8] = assay: Antimicrobial activity against Staphylococcus aureus ATCC 25923 assessed as reduction in bacterial growth incubated for 18 hrs in presence of 10% serum by CLSI protocol based broth microdilution method (reference value: 8 uM); assay type: functional
Staphylococcus aureus [9] = assay: Antimicrobial activity against Staphylococcus aureus ATCC 25923 assessed as reduction in bacterial growth incubated for 18 hrs in presence of 1 mM MgCl2 by CLSI protocol based broth microdilution method (reference value: 8 uM); assay type: functional
Staphylococcus aureus [10] = assay: Antimicrobial activity against Staphylococcus aureus ATCC 25923 assessed as reduction in bacterial growth incubated for 18 hrs in presence of 4.5 mM KCl by CLSI protocol based broth microdilution method (reference value: 8 uM); assay type: functional
Escherichia coli [11] = assay: Antimicrobial activity against Escherichia coli ATCC 25922 assessed as reduction of bacterial growth at 2 times MIC incubated for 18 hrs in presence of trypsin by CLSI protocol based broth microdilution method; assay type: functional, organism-based
Staphylococcus aureus [12] = assay: Antimicrobial activity against Staphylococcus aureus ATCC 25923 assessed as reduction of bacterial growth at 2 times MIC incubated for 18 hrs in presence of trypsin by CLSI protocol based broth microdilution method; assay type: functional, organism-based
[13] = Stability in mouse serum assessed as half life at 10 mM measured upto 360 mins by RP-HPLC analysis; assay type: ADME, cell-free
Escherichia coli [14] = assay: Antimicrobial activity against kanamycin-resistant Escherichia coli ATCC 25922; assay type: functional
Escherichia coli [15] = assay: Synergistic antibacterial activity against kanamycin-resisitant Escherichia coli ATCC 25922 assessed as fractional inhibitory concentration index incubated for 18 hrs in presence of kanamycin by checker board assay; assay type: functional
Escherichia coli [16] = assay: Synergistic antibacterial activity against rifampicin-resistant Escherichia coli ATCC 25922 assessed as fractional inhibitory concentration index incubated for 18 hrs in presence of rifampicin by checker board assay; assay type: functional
Staphylococcus aureus [17] = assay: Synergistic antibacterial activity against kanamycin-resisitant Staphylococcus aureus ATCC 25923 assessed as fractional inhibitory concentration index incubated for 18 hrs in presence of kanamycin by checker board assay; assay type: functional
Escherichia coli [18] = assay: Antimicrobial activity against Escherichia coli ATCC 25922 assessed as cell membrane breakage measured after 30 mins by SEM analysis; assay type: functional, organism-based
Staphylococcus aureus [19] = assay: Antimicrobial activity against Staphylococcus aureus ATCC 25923 assessed as breakage of cell membrane measured after 2 hrs by SEM analysis; assay type: functional, organism-based
Cell membrane [20] = assay: Induction of outer membrane permeabilization in Escherichia coli ATCC 25922 by NPN fluorescent dye based assay; assay type: subcellular; details: DDE = dose-dependent effect
Cell membrane [21] = assay: Induction of outer membrane permeabilization in Pseudomonas aeruginosa ATCC 27853 by NPN fluorescent dye based assay; assay type: subcellular; details: DDE = dose-dependent effect
Staphylococcus aureus [22] = assay: Antibacterial activity against Staphylococcus aureus ATCC 25923 infected BALB/c mouse assessed as reduction in pulmonary inflammatory cell infiltration at 5 to 10 mg/kg, ip measured after 24 hrs by hematoxylin and eosin staining based assay; assay type: functional, organism-based; details: dose 5-10 mg/kg
[23] = Acute toxicity in Kunming mouse assessed as hepatocyte hyperemia in liver at 62 mg/kg, ip by H and E staining based analysis; assay type: organism-based
Staphylococcus aureus [24] = assay: Antibacterial activity against Staphylococcus aureus ATCC 25923 infected BALB/c mouse assessed as reduction in alveolar constriction at 5 to 10 mg/kg, ip measured after 24 hrs by hematoxylin and eosin staining based assay; assay type: functional, organism-based; details: dose 5-10 mg/kg
Escherichia coli [25] = assay: Antimicrobial activity against Escherichia coli ATCC 25922 assessed as reduction in bacterial growth incubated for 18 hrs in presence of 150 mM NaCl by CLSI protocol based broth microdilution method (reference value: 4 uM); assay type: functional
Escherichia coli [26] = assay: Antimicrobial activity against Escherichia coli ATCC 25922 assessed as reduction in bacterial growth incubated for 18 hrs in presence of 4.5 mM KCl by CLSI protocol based broth microdilution method (reference value: 4 uM); assay type: functional
Escherichia coli [27] = assay: Antimicrobial activity against Escherichia coli ATCC 25922 assessed as reduction in bacterial growth incubated for 18 hrs in presence of 1 mM MgCl2 by CLSI protocol based broth microdilution method (reference value: 4 uM); assay type: functional
Escherichia coli [28] = assay: Antimicrobial activity against Escherichia coli ATCC 25922 assessed as reduction in bacterial growth incubated for 18 hrs in presence of 4 uM FeCl3 by CLSI protocol based broth microdilution method (reference value: 4 uM); assay type: functional
Escherichia coli [29] = assay: Antimicrobial activity against Escherichia coli ATCC 25922 assessed as reduction in bacterial growth incubated for 18 hrs in presence of 10% serum by CLSI protocol based broth microdilution method (reference value: 4 uM); assay type: functional
Staphylococcus aureus [30] = assay: Antimicrobial activity against Staphylococcus aureus ATCC 25923 assessed as reduction in bacterial growth incubated for 18 hrs in presence of 10% serum by CLSI protocol based broth microdilution method (reference value: 4 uM); assay type: functional
Staphylococcus aureus [31] = assay: Antimicrobial activity against Staphylococcus aureus ATCC 25923 assessed as reduction in bacterial growth incubated for 18 hrs in presence of 4.5 mM KCl by CLSI protocol based broth microdilution method (reference value: 4 uM); assay type: functional
[32] = Acute toxicity in Kunming mouse assessed as congestion in lungs at 77 mg/kg, ip by H and E staining based analysis; assay type: organism-based; details: in vivo
Staphylococcus aureus [33] = assay: Synergistic antibacterial activity against meropenem-resistant Staphylococcus aureus ATCC 25923 assessed as fractional inhibitory concentration index incubated for 18 hrs in presence of meropenem by checker board assay; assay type: functional
Staphylococcus aureus [34] = assay: Synergistic antibacterial activity against Staphylococcus aureus ATCC 25923 assessed as fractional inhibitory concentration index incubated for 18 hrs in presence of polymyxin B by checker board assay; assay type: functional

Substance	MIC [2] [µM]	HC10 (Erythrocyte) [µM]	fold change (FC) (Escherichia coli [3])	fold change (FC) (Escherichia coli [4])	fold change (FC) (Staphylococcus aureus [7])	half-life at 10000 µM [13] [h]	MIC (Escherichia coli [14]) [µM]	fractional inhibitory concentration index (FICI) (Staphylococcus aureus [17])	Activity (Escherichia coli [18])	Activity (Staphylococcus aureus [19])	Activity (Cell membrane [20])	Activity (Cell membrane [21])	Activity (Staphylococcus aureus [22])	Activity (Staphylococcus aureus [24])	other results
H-KWKWKRRRFKWKWK-NH2	4	> 256	1	1	2	2.68	4	0.5	Active	Active	Dde	Dde	Active	Active	MIC (Escherichia coli [1]): 8 µM; MIC (Escherichia coli [5]): 8 µM; MIC (Escherichia coli [6]): 8 µM; MIC (Staphylococcus aureus [8]): 16 µM; MIC (Staphylococcus aureus [9]): 8 µM; MIC (Staphylococcus aureus [10]): 8 µM; Activity (Escherichia coli [11]): Active; Activity (Staphylococcus aureus [12]): Active; fractional inhibitory concentration index (FICI) (Escherichia coli [15]): 0.3125; fractional inhibitory concentration index (FICI) (Escherichia coli [16]): 0.5625; Activity [23]: Toxic
H-RIRIRRRRFRIRIR-NH2	4	> 256	4	2	2	7.7	4	0.5625	Active	Active	Dde	Dde	Active	Active	MIC (Escherichia coli [25]): 16 µM; MIC (Escherichia coli [26]): 8 µM; MIC (Escherichia coli [27]): 4 µM; MIC (Escherichia coli [28]): 8 µM; MIC (Escherichia coli [29]): 4 µM; MIC (Staphylococcus aureus [30]): 8 µM; MIC (Staphylococcus aureus [31]): 4 µM; Activity [32]: Toxic; fractional inhibitory concentration index (FICI) (Staphylococcus aureus [33]): 0.375; fractional inhibitory concentration index (FICI) (Staphylococcus aureus [34]): 0.375
